From US8165517B2, “Methods for identifying inhibitors of vascular injury” (The Trustees of the University of Pennsylvania, priority 2005, dated 2012)

What was measured:
[1] = system: mouse aortic smooth muscle cell (mASMC); assay: mASMC proliferation by MTT assay; type: cell-based; conditions: PGD2 1 and 5 μM, 24 hr, confluent, quiescent SMC
Procedure: FIG. 6 depicts the effect of PGD2 on mASMC proliferation. Confluent, quiescent SMC were treated with varies concentrations of PGD2. Cell proliferation was determined by MTT assay at 24 hr. Values are mean±S.E.M. (*: P<0.005, by One-way ANOVA and t test, n=6).
The effect of PGD2 on mASMC proliferation was determined by MTT assay.

[2] = system: MAP Kinase (MAPK), phosphorylated ERK1/2, in mASMC; assay: MAPK activation in mASMC by Western analysis of SMC lysate; type: cell-based, mouse
Procedure: FIG. 7 depicts the effect of PGD2 on MAPK activation in mASMC. Confluent, quiescent SMC were treated with 1 μM PGD2 for varies timepoints. Cells were lysed and the lysate was analyzed for phosphorylated ERK1/2 (upper panel) and MARK (lower panel) by Western analysis, using antibodies to phosphotyrosine −ERK1/2 and ERK1/2, respectively.
The effect of PGD2 on activation of MAP Kinase (MAPK) was tested by Western analysis of SMC lysate.

## CCCCC[C@H](O)/C=C/[C@H]1C(=O)C[C@H](O)[C@@H]1C/C=C\CCCC(=O)O [PGD2, Prostaglandin D2]
[1]
  effect on mASMC proliferation: significantly promote mASMC proliferation
[2]; 1 μM PGD2, after 15 min
  level of phosphorylated-MAPK1/2 over time: returned to control levels
[2]; 1 μM PGD2, as early as 10 min
  activation of MAP Kinase (phosphorylated-MAPK1/2, 44 and 42 kDa): induction of a phosphorylated-MAPK1/2
